Like-named read-outs stand apart in the source and are kept apart here. Where a SMILES comes first, the peptide text is derived from it. [ ]: non-standard residue; d: D form. The star is where a group is joined. Palmitoyl = CCCCCCCCCCCCCCCC(=O)*
Legend:
[1] = target: T1, APJ receptor (Homo sapiens, UniProt P35414); assay: HTRF cAMP assay, inhibition of NKH477 stimulated cAMP in Human TRex cells expressing APJ upon doxycycline induction (APJ-hTREX); type: cell-based; conditions: for Ranking: class combining EC50 and % histamine; for percent intrinsic activity at 0.3 µM: read-out: % IA (@ 300 nM)
T1 construct: expressed in transfected cells; host or cells: Human TRex cells (doxycycline-inducible)
T1 sequence (P35414 1-380): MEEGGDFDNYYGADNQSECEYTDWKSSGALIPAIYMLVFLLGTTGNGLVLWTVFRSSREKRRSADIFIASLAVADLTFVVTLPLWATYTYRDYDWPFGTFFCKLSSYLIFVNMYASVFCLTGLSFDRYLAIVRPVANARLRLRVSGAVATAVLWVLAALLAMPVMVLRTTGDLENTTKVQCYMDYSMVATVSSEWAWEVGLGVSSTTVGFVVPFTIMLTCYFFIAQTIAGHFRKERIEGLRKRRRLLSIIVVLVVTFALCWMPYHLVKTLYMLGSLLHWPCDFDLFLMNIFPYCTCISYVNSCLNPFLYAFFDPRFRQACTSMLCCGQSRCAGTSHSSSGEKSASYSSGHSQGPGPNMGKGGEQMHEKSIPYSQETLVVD
In short: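 Cells stimulated with NKH477 and cAMP measured by HTRF competitive immunoassay (cryptate anti-cAMP antibody, d2-labeled cAMP). APJ-hTREX cells induced with […] doxycycline and seeded overnight at 40 k/well.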

[2] = Histimine (% vs. 48/40)
[3] = inhibition of NKH477 stimulated cAMP, APJ-hTREX cells, read-out: APJ-hTREX EC50

percent intrinsic activity at 0.3 µM [1] [%]	Histimine (% vs. 48/40) [2] [%]	EC50 [1, 3] [µM]	SMILES	EC50 [1] [µM]	Ranking [1]
46	13	0.732	CCCCCCCCCCCCCCCC(=O)N[C@H](C(=O)N[C@H](C(=O)N[C@@H](Cc1ccccc1)C(=O)N[C@@H](CCCNC(=N)N)C(=O)N[C@@H](CO)C(=O)N[C@@H](CO)C(=O)N[C@@H](CCC(=O)O)C(=O)N[C@H](CCCCN)C(=O)N[C@@H](CCCNC(=N)N)C(=O)N[C@@H](CCCNC(=N)N)C(=O)N[C@@H](CC(=O)O)C(=O)N[C@@H](C)C(=O)N[C@@H](CC(=O)O)C(=O)N[C@H](C(=O)N[C@@H](Cc1ccccc1)C(=O)N[C@H](C(N)=O)[C@@H](C)CC)[C@@H](C)CC)C(C)C)[C@@H](C)O [Compound 38] (Palmitoyl-TVFRSSE[dK]RRDADIFI-NH2; C-terminus assumed)	–	* (EC50>500 nM and % histamine>35%)
27	8	–	CCCCCCCCCCCCCCCC(=O)N[C@H](C(=O)N[C@H](C(=O)N[C@@H](Cc1ccccc1)C(=O)N[C@@H](CCCNC(=N)N)C(=O)N[C@@H](CO)C(=O)N[C@@H](CO)C(=O)N[C@@H](CCC(=O)O)C(=O)N[C@H](CCCCN)C(=O)N[C@@H](CCCNC(=N)N)C(=O)N[C@@H](CCCNC(=N)N)C(=O)N[C@@H](CO)C(=O)N[C@@H](CC(=O)O)C(=O)N[C@@H](CC(=O)O)C(=O)N[C@H](C(=O)N[C@@H](Cc1ccccc1)C(=O)N[C@H](C(N)=O)[C@@H](C)CC)[C@@H](C)CC)C(C)C)[C@@H](C)O [Compound 39] (Palmitoyl-TVFRSSE[dK]RRSDDIFI-NH2)	–	–
71	46	0.0482	CCCCCCCCCCCCCCCC(=O)N[C@H](C(=O)N[C@H](C(=O)N[C@@H](Cc1ccccc1)C(=O)N[C@@H](CCCNC(=N)N)C(=O)N[C@@H](CO)C(=O)N[C@@H](CO)C(=O)N[C@@H](CCC(=O)O)C(=O)N[C@H](CCCCN)C(=O)N[C@@H](CCCNC(=N)N)C(=O)N[C@@H](CCCNC(=N)N)C(=O)N[C@@H](CO)C(=O)N[C@@H](C)C(=O)N[C@@H](CC(=O)O)C(=O)N[C@@H](CC(=O)O)C(=O)N[C@@H](Cc1ccccc1)C(=O)N[C@H](C(N)=O)[C@@H](C)CC)C(C)C)[C@@H](C)O [Compound 40] (Palmitoyl-TVFRSSE[dK]RRSADDFI-NH2; C-terminus assumed)	–	*** (EC50<100 nM and % histamine>35%)
60	48	–	CCCCCCCCCCCCCCCC(=O)N[C@H](C(=O)N[C@H](C(=O)N[C@@H](Cc1ccccc1)C(=O)N[C@@H](CCCNC(=N)N)C(=O)N[C@@H](CO)C(=O)N[C@@H](CO)C(=O)N[C@@H](CCC(=O)O)C(=O)N[C@H](CCCCN)C(=O)N[C@@H](CCCNC(=N)N)C(=O)N[C@@H](CCCNC(=N)N)C(=O)N[C@@H](CO)C(=O)N[C@@H](C)C(=O)N[C@@H](CC(=O)O)C(=O)N[C@H](C(=O)N[C@@H](Cc1ccccc1)C(=O)N[C@@H](CC(=O)O)C(N)=O)[C@@H](C)CC)C(C)C)[C@@H](C)O [Compound 41] (Palmitoyl-TVFRSSE[dK]RRSADIFD-NH2)	–	–
78	5	3.35	CCCCCCCCCCCCCCCC(=O)N[C@H](C(=O)N[C@H](C(=O)N[C@@H](Cc1ccccc1)C(=O)N[C@@H](CCCNC(=N)N)C(=O)N[C@@H](CO)C(=O)N[C@@H](CO)C(=O)N[C@@H](CCC(=O)O)C(=O)N1CCC[C@H]1C(=O)N[C@@H](CCCNC(=N)N)C(=O)N[C@@H](CCCNC(=N)N)C(=O)N[C@@H](CO)C(=O)N[C@@H](C)C(=O)N[C@@H](CC(=O)O)C(=O)N[C@H](C(=O)N[C@@H](Cc1ccccc1)C(=O)N[C@H](C(N)=O)[C@@H](C)CC)[C@@H](C)CC)C(C)C)[C@@H](C)O [Compound 48] (Palmitoyl-TVFRSSEPRRSADIFI-NH2; C-terminus assumed)	–	* (EC50>500 nM and % histamine>35%)
41	16	–	CCCCCCCCCCCCCCCC(=O)N[C@H](C(=O)N[C@H](C(=O)N[C@@H](Cc1ccccc1)C(=O)N[C@@H](CCCNC(=N)N)C(=O)N[C@@H](CO)C(=O)N[C@@H](CO)C(=O)N[C@@H](CCC(=O)O)C(=O)N[C@H](CCCCN)C(=O)N[C@@H](CCCNC(=N)N)C(=O)N1CCC[C@H]1C(=O)N[C@@H](CO)C(=O)N[C@@H](C)C(=O)N[C@@H](CC(=O)O)C(=O)N[C@H](C(=O)N[C@@H](Cc1ccccc1)C(=O)N[C@H](C(N)=O)[C@@H](C)CC)[C@@H](C)CC)C(C)C)[C@@H](C)O [Compound 50] (Palmitoyl-TVFRSSE[dK]RPSADIFI-NH2)	–	–
60	63	–	CCCCCCCCCCCCCCCC(=O)N[C@H](C(=O)N[C@H](C(=O)N[C@@H](Cc1ccccc1)C(=O)N[C@@H](CCCNC(=N)N)C(=O)N[C@@H](CO)C(=O)N[C@@H](CO)C(=O)N[C@@H](CCC(=O)O)C(=O)N[C@H](CCCCN)C(=O)N[C@@H](CCCNC(=N)N)C(=O)N[C@@H](CCCNC(=N)N)C(=O)N1CCC[C@H]1C(=O)N[C@@H](C)C(=O)N[C@@H](CC(=O)O)C(=O)N[C@H](C(=O)N[C@@H](Cc1ccccc1)C(=O)N[C@H](C(N)=O)[C@@H](C)CC)[C@@H](C)CC)C(C)C)[C@@H](C)O [Compound 51] (Palmitoyl-TVFRSSE[dK]RRPADIFI-NH2)	–	–
45	75	–	CCCCCCCCCCCCCCCC(=O)N[C@H](C(=O)N[C@H](C(=O)N[C@@H](Cc1ccccc1)C(=O)N[C@@H](CCCNC(=N)N)C(=O)N[C@@H](CO)C(=O)N[C@@H](CO)C(=O)N[C@@H](CCC(=O)O)C(=O)N[C@H](CCCCN)C(=O)N[C@@H](CCCNC(=N)N)C(=O)N[C@@H](CCCNC(=N)N)C(=O)N[C@@H](CO)C(=O)N1CCC[C@H]1C(=O)N[C@@H](CC(=O)O)C(=O)N[C@H](C(=O)N[C@@H](Cc1ccccc1)C(=O)N[C@H](C(N)=O)[C@@H](C)CC)[C@@H](C)CC)C(C)C)[C@@H](C)O [Compound 52] (Palmitoyl-TVFRSSE[dK]RRSPDIFI-NH2)	–	–

SMILES	percent intrinsic activity at 0.3 µM [1] [%]	Histimine (% vs. 48/40) [2] [%]	EC50 [1, 3] [µM]	EC50 [1] [µM]	Ranking [1]
CCCCCCCCCCCCCCCC(=O)N[C@@H](CC(=O)O)C(=O)N[C@H](C(=O)N[C@@H](Cc1ccccc1)C(=O)N[C@@H](CCCNC(=N)N)C(=O)N[C@@H](CO)C(=O)N[C@@H](CO)C(=O)N[C@@H](CCC(=O)O)C(=O)N[C@H](CCCCN)C(=O)N[C@@H](CCCNC(=N)N)C(=O)N[C@@H](CCCNC(=N)N)C(=O)N[C@@H](CO)C(=O)N[C@@H](C)C(=O)N[C@@H](CC(=O)O)C(=O)N[C@H](C(=O)N[C@@H](Cc1ccccc1)C(=O)N[C@H](C(N)=O)[C@@H](C)CC)[C@@H](C)CC)C(C)C [Compound 33] (Palmitoyl-DVFRSSE[dK]RRSADIFI-NH2; C-terminus assumed)	61	11	–	0.107	**** (EC50 101-500 nM and % histamine<35%)
CCCCCCCCCCCCCCCC(=O)N[C@H](C(=O)N[C@H](C(=O)N[C@@H](CC(=O)O)C(=O)N[C@@H](CCCNC(=N)N)C(=O)N[C@@H](CO)C(=O)N[C@@H](CO)C(=O)N[C@@H](CCC(=O)O)C(=O)N[C@H](CCCCN)C(=O)N[C@@H](CCCNC(=N)N)C(=O)N[C@@H](CCCNC(=N)N)C(=O)N[C@@H](CO)C(=O)N[C@@H](C)C(=O)N[C@@H](CC(=O)O)C(=O)N[C@H](C(=O)N[C@@H](Cc1ccccc1)C(=O)N[C@H](C(N)=O)[C@@H](C)CC)[C@@H](C)CC)C(C)C)[C@@H](C)O [Compound 35] (Palmitoyl-TVDRSSE[dK]RRSADIFI-NH2; C-terminus assumed)	70	4	–	0.142	**** (EC50 101-500 nM and % histamine<35%)
CCCCCCCCCCCCCCCC(=O)N[C@H](C(=O)N[C@H](C(=O)N[C@@H](Cc1ccccc1)C(=O)N1CCC[C@H]1C(=O)N[C@@H](CO)C(=O)N[C@@H](CO)C(=O)N[C@@H](CCC(=O)O)C(=O)N[C@H](CCCCN)C(=O)N[C@@H](CCCNC(=N)N)C(=O)N[C@@H](CCCNC(=N)N)C(=O)N[C@@H](CO)C(=O)N[C@@H](C)C(=O)N[C@@H](CC(=O)O)C(=O)N[C@H](C(=O)N[C@@H](Cc1ccccc1)C(=O)N[C@H](C(N)=O)[C@@H](C)CC)[C@@H](C)CC)C(C)C)[C@@H](C)O [Compound 44] (Palmitoyl-TVFPSSE[dK]RRSADIFI-NH2; C-terminus assumed)	74	7	–	0.111	**** (EC50 101-500 nM and % histamine<35%)
CCCCCCCCCCCCCCCC(=O)N[C@H](C(=O)N[C@H](C(=O)N[C@@H](Cc1ccccc1)C(=O)N[C@@H](CCCNC(=N)N)C(=O)N[C@@H](CO)C(=O)N[C@@H](CO)C(=O)N1CCC[C@H]1C(=O)N[C@H](CCCCN)C(=O)N[C@@H](CCCNC(=N)N)C(=O)N[C@@H](CCCNC(=N)N)C(=O)N[C@@H](CO)C(=O)N[C@@H](C)C(=O)N[C@@H](CC(=O)O)C(=O)N[C@H](C(=O)N[C@@H](Cc1ccccc1)C(=O)N[C@H](C(N)=O)[C@@H](C)CC)[C@@H](C)CC)C(C)C)[C@@H](C)O [Compound 47] (Palmitoyl-TVFRSSP[dK]RRSADIFI-NH2; C-terminus assumed)	83	60	–	0.0133	*** (EC50<100 nM and % histamine>35%)
